Here are results for 54 compounds from patent US20250282754A1, “BICYCLIC COMPOUNDS AND THEIR USE AS PEST CONTROL AGENTS” (Pl Industries Ltd., priority 2022, published 2025).

SMILES strings stand for the structures.

For one test, the system named is Nilaparvata lugens. As to the kind of experiment: Nilaparvata lugens seedling dip test (paddy seedlings, third instar nymphs). It counts as in vivo. Particulars: dead and moribund third instar nymphs 72 h after release, compared to untreated controls, read-out: percent mortality. As for the experimental part:
The seedling dip method was used for testing, wherein the required quantity of the compound was weighed and dissolved in a tube containing a solvent solution. The tube was put on a vortex at 2000 rpm for proper mixing and then diluted with a 0.01% Triton-X solution to the desired test concentration. Paddy seedlings were dipped in the compound solution for 10 seconds, shade dried for 20 min and then the seedlings were placed in glass test tubes with the roots kept in water. 15 third instar nymphs of Nilaparvata lugens were released into each test tube and the tubes were kept in a plant growth chamber at a temperature of 25° C. and relative humidity of 75%. Observations on dead, moribund and alive nymphs were recorded 72 h after the release. Percent mortality was calculated by combining dead and moribund nymphs and comparing the result to the one of the untreated controls. The compounds
For `CCS(=O)(=Nc1ccnc(C)c1)c1ccc2nn(-c3cncc(F)c3)cc2c1` (stereo not drawn) [Compound 464], the mortality at 300 ppm was at least 70%.

In the case of `CS(=O)(=Nc1ccc2nn(-c3cncc(F)c3)cc2c1)c1ccccc1` (stereo not drawn) [Compound 14], the mortality at 300 ppm is at least 70%.

Regarding `Cc1ccc(S(C)(=O)=Nc2ccc3nn(-c4cccnc4)cc3c2)cc1` (stereo not drawn) [Compound 23], the mortality at 300 ppm is at least 70%.

For the next test, the system named is Bemisia tabaci. In words: Bemisia tabaci leaf dip test (brinjal leaves, whitefly adults). It counts as in vivo. Particulars: foliar, dead and moribund whitefly adults 72 h after release, compared to untreated controls, read-out: percent mortality. As for the experimental part: The leaf dip method was used for testing, wherein the required quantity of the compound was weighed and dissolved in a tube containing a solvent solution. The tube was put on a vortex at 2000 rpm for proper mixing and then diluted with a 0.01% Triton-X solution to the desired test concentration. Brinjal leaves were dipped in the compound solution for 10 seconds; shade dried for 20 min and then placed, with the abaxial side of the leaf up, on 4 ml of a solidified 1% agar-agar solution in respective container caps. Known numbers of freshly emerged whitefly adults were collected, using a modified aspirator, and released into a perforated container in which the cap containing the treated leaf was placed. The containers were kept in a plant growth chamber at a temperature of 25° C. and relative humidity of 70%. Observations on dead, moribund and alive adults were recorded 72 h after the release. Percent mortality was calculated by combining dead and moribund adults and comparing the result to the one of the untreated controls. The compounds 1 9 11 18 25 28 29 30 31
Take `CC(C)CCS(=O)(=Nc1ccc2nn(-c3cncnc3)cc2c1)C(C)C` (stereo not drawn) [Compound 294]: the mortality at 300 ppm is at least 70%.

Regarding `CC(C)S(C)(=O)=Nc1cccc2nn(-c3cccnc3)cc12` (stereo not drawn) [Compound 74], the mortality at 300 ppm is at least 70%.

For the compound `CCS(=O)(CC)=Nc1ccc2nn(-c3cncc(F)c3)cc2n1` [Compound 308], the mortality at 300 ppm was at least 70%.

Take `CC(C)S(C)(=O)=Nc1ccc2nn(-c3cncc(F)c3)cc2n1` (stereo not drawn) [Compound 311]: the mortality at 300 ppm was at least 70%.

Consider `CCS(=O)(=Nc1cncc(C(F)(F)F)n1)c1ccc2nn(-c3cncc(F)c3)cc2c1` (stereo not drawn) [Compound 463], for which the mortality at 300 ppm was at least 70%.

Consider `N=S(=O)(CC1CCC1)c1ccc2nn(-c3cncnc3)cc2c1` (stereo not drawn) [Compound 465, (cyclobutylmethyl)(imino)(2-(pyrimidin-5-yl)-2H-indazol-5-yl)-λ^6-sulfanone], for which the mortality at 300 ppm is at least 70%.

As for `CCCCS(=O)(CC)=Nc1ccc2nn(-c3cncnc3)cc2n1` (stereo not drawn) [Compound 220], the mortality at 300 ppm was at least 70%.

`CCN=S(=O)(CC1CCC1)c1ccc2nn(-c3cncnc3)cc2c1` (stereo not drawn) [Compound 466]: the mortality at 300 ppm was at least 70%.

Take `CS(C)(=O)=NC(=O)c1ccc2nn(-c3cncnc3)cc2c1` [Compound 228, N-(dimethyl(oxo)-λ^6-sulfaneylidene)-2-(pyrimidin-5-yl)-2H-indazole-5-carboxamide]: the mortality at 300 ppm is at least 70%.

`CCS(=O)(CC)=Nc1cc(C(F)(F)F)c2nn(-c3cccnc3)cc2c1` [Compound 296]: the mortality at 300 ppm was at least 70%.

`COc1nn(-c2ccc3nn(-c4cccnc4)cc3c2)c(=O)n1Cc1ccc(Cl)cc1Cl` [Compound 369, 4-(2,4-dichlorobenzyl)-5-methoxy-2-(2-(pyridin-3-yl)-2H-indazol-5-yl)-2,4-dihydro-3H-1,2,4-triazol-3-one]: the mortality at 300 ppm was at least 70%.

With `N=S(=O)(CCC(F)(F)F)c1ccc2nn(-c3cccnc3)cc2c1` (stereo not drawn) [Compound 580, imino(2-(pyridin-3-yl)-2H-indazol-5-yl)(3,3,3-trifluoropropyl)-λ^6-sulfanone], the mortality at 300 ppm was at least 70%.

Consider `CC(C)(C)S(C)(=O)=Nc1ccc2nn(-c3cncc(F)c3)cc2c1` (stereo not drawn) [Compound 293], for which the mortality at 300 ppm was at least 70%.

`CC(C)CS(=O)(CC(C)C)=Nc1ccc2nn(-c3cncnc3)cc2n1` [Compound 221]: the mortality at 300 ppm was at least 70%.

Take `CC(C)S(=O)(CCC(F)(F)F)=Nc1ccc2nn(-c3cncnc3)cc2c1` (stereo not drawn) [Compound 101, isopropyl((2-(pyrimidin-5-yl)-2H-indazol-5-yl)imino)(3,3,3-trifluoropropyl)-λ^6-sulfanone]: the mortality at 300 ppm was at least 70%.

For `CC(C)S(=O)(=Nc1ccc2nn(-c3cncnc3)cc2c1)C(C)C` [Compound 31], the mortality at 300 ppm is at least 70%.

Turning to `N=S(=O)(CCC1CCCCC1)c1ccc2nn(-c3cccnc3)cc2c1` (stereo not drawn) [Compound 561, (2-cyclohexylethyl)(imino)(2-(pyridin-3-yl)-2H-indazol-5-yl)-λ^6-sulfanone], the mortality at 300 ppm is at least 70%.

With `CCS(=O)(=Nc1ccc2nn(-c3cncnc3)cc2c1)c1ccccc1` (stereo not drawn) [Compound 34], the mortality at 300 ppm was at least 70%.

For the compound `COc1nn(-c2ccc3nn(-c4cccnc4)cc3c2)c(=O)n1Cc1ccc(Cl)c(Cl)c1` [Compound 368, 4-(3,4-dichlorobenzyl)-5-methoxy-2-(2-(pyridin-3-yl)-2H-indazol-5-yl)-2,4-dihydro-3H-1,2,4-triazol-3-one], the mortality at 300 ppm is at least 70%.

As for `CCN(C)S(=O)(=Nc1ccc2nn(-c3cncnc3)cc2c1)C1CC1` (stereo not drawn) [Compound 135, N-ethyl-N-methyl-N′-(2-(pyrimidin-5-yl)-2H-indazol-5-yl)cyclopropanesulfonimidamide], the mortality at 300 ppm is at least 70%.

For `CCS(=O)(=Nc1ccc2nn(-c3cncnc3)cc2n1)C(C)C` (stereo not drawn) [Compound 241], the mortality at 300 ppm is at least 70%.

As to `CC(C)(C)S(C)(=O)=Nc1ccc2nn(-c3cncc(F)c3)cc2n1` (stereo not drawn) [Compound 313], the mortality at 300 ppm is at least 70%.

Take `CN=S(=O)(c1ccc2nn(-c3cccnc3)cc2c1)C(C)C` (stereo not drawn) [Compound 408]: the mortality at 300 ppm was at least 70%.

For `CCCS(=O)(CCC)=Nc1ccc2nn(-c3cncc(F)c3)cc2n1` [Compound 310], the mortality at 300 ppm is at least 70%.

As to `CC(C)S(=O)(=NC(=O)C(F)F)c1ccc2nn(-c3cncnc3)cc2c1` (stereo not drawn) [Compound 421], the mortality at 300 ppm was at least 70%.

Regarding `COc1nn(-c2ccc3nn(-c4ccc(C)nc4C)cc3c2)c(=O)n1C` [Compound 116, 2-(2-(2,6-dimethylpyridin-3-yl)-2H-indazol-5-yl)-5-methoxy-4-methyl-2,4-dihydro-3H-1,2,4-triazol-3-one], the mortality at 300 ppm is at least 70%.

For the compound `CCCS(=O)(CCC)=Nc1cnc2nn(-c3cncnc3)cc2c1` [Compound 184], the mortality at 300 ppm was at least 70%.

With `CCS(=O)(CC)=NC(=O)c1ccc2nn(-c3cncnc3)cc2c1` [Compound 231, N-(diethyl(oxo)-λ^6-sulfaneylidene)-2-(pyrimidin-5-yl)-2H-indazole-5-carboxamide], the mortality at 300 ppm was at least 70%.

`CCS(C)(=O)=Nc1ccc(F)c2nn(-c3cccnc3)cc12` (stereo not drawn) [Compound 109]: the mortality at 300 ppm was at least 70%.

With `CCCS(C)(=O)=Nc1ccc2nn(-c3cncc(F)c3)cc2n1` (stereo not drawn) [Compound 309], the mortality at 300 ppm is at least 70%.

Regarding `CC(C)CS(=O)(CC(C)C)=Nc1ccc2nn(-c3cccnc3)cc2c1` [Compound 79], the mortality at 300 ppm is at least 70%.

As to `CC(C)S(C)(=O)=Nc1ccc2nn(-c3cncnc3)cc2n1` (stereo not drawn) [Compound 213], the mortality at 300 ppm was at least 70%.

With `O=S(CCC(F)(F)F)(=Nc1ccc2nn(-c3cncc(F)c3)cc2c1)c1ccccc1` (stereo not drawn) [Compound 65], the mortality at 300 ppm is at least 70%.

For the compound `CCS(=O)(=Nc1ccc2nn(-c3ccnnc3)cc2c1)C(C)C` (stereo not drawn) [Compound 48], the mortality at 300 ppm was at least 70%.

Turning to `COc1nn(-c2ccc3nn(-c4cccnc4)cc3c2)c(=O)n1Cc1ccccc1F` [Compound 122, 4-(2-fluorobenzyl)-5-methoxy-2-(2-(pyridin-3-yl)-2H-indazol-5-yl)-2,4-dihydro-3H-1,2,4-triazol-3-one], the mortality at 300 ppm was at least 70%.

`CC(=O)N=S(=O)(CC1CCC1)c1ccc2nn(-c3cncnc3)cc2c1` (stereo not drawn) [Compound 467]: the mortality at 300 ppm is at least 70%.

With `CC(C)S(=O)(=Nc1ccc2nn(-c3cncnc3)cc2c1)c1ccc(F)cc1` (stereo not drawn) [Compound 18], the mortality at 300 ppm is at least 70%.

In the case of `CCS(=O)(=Nc1ccc(F)c2nn(-c3cccnc3)cc12)C(C)C` (stereo not drawn) [Compound 108], the mortality at 300 ppm is at least 70%.

For the compound `CC(C)S(=N)(=O)c1ccc2nn(-c3cncnc3)cc2c1` (stereo not drawn) [Compound 410, imino(isopropyl)(2-(pyrimidin-5-yl)-2H-indazol-5-yl)-λ^6-sulfanone], the mortality at 300 ppm is at least 70%.

For `CS(=O)(=Nc1ccc2nn(-c3cncnc3)cc2n1)C1CCCCC1` (stereo not drawn) [Compound 223], the mortality at 300 ppm is at least 70%.

`COc1ccc(S(=O)(CCC(F)(F)F)=Nc2ccc3nn(-c4cncc(F)c4)cc3c2)cc1` (stereo not drawn) [Compound 66]: the mortality at 300 ppm was at least 70%.

As to `CCS(C)(=O)=Nc1ccc2nn(-c3cncc(F)c3)cc2n1` (stereo not drawn) [Compound 307], the mortality at 300 ppm is at least 70%.

Consider `CC(C)S(=O)(CC1CCC1)=Nc1ccc2nn(-c3cccnc3)cc2n1` (stereo not drawn) [Compound 289], for which the mortality at 300 ppm was at least 70%.

Take `CCS(=O)(CC)=Nc1ccc2nn(-c3cncnc3)cc2n1` [Compound 219]: the mortality at 300 ppm is at least 70%.

For `CCCS(=O)(CCC)=Nc1cccc2nn(-c3cncc(F)c3)cc12` [Compound 77], the mortality at 300 ppm was at least 70%.

For `CC(=O)N=S(=O)(c1ccc2nn(-c3cncnc3)cc2c1)C(C)C` (stereo not drawn) [Compound 418], the mortality at 300 ppm was at least 70%.

As to `O=S(CCC(F)(F)F)(=Nc1ccc2nn(-c3ccnnc3)cc2c1)c1ccccc1` (stereo not drawn) [Compound 68], the mortality at 300 ppm is at least 70%.

With `CCCCS(=O)(CC)=Nc1ccc2nn(-c3cccnc3)cc2n1` (stereo not drawn) [Compound 214], the mortality at 300 ppm was at least 70%.

Consider `CCS(=O)(CC)=Nc1ccc2nn(-c3ccnnc3)cc2c1` [Compound 43], for which the mortality at 300 ppm was at least 70%.

In the case of `N=S(=O)(c1ccc2nn(-c3cccnc3)cc2c1)C1CCC1` (stereo not drawn) [Compound 554, cyclobutyl(imino)(2-(pyridin-3-yl)-2H-indazol-5-yl)-λ^6-sulfanone], the mortality at 300 ppm is at least 70%.

As to `CCCS(=O)(CCC)=Nc1cc2cn(-c3cncnc3)nc2cn1` [Compound 278], the mortality at 300 ppm was at least 70%.

By mortality is commonly meant the share of the test organisms that died.
